Patent US20230279025A1, “KRAS G12D INHIBITORS” (Mirati Therapeutics, Inc., priority 2020, published 2023)

Legend:
KRas G12D [1] = target: T1, KRas G12D (Homo sapiens (Human), UniProt P01116, G12D); test: KRas G12D Surface Plasmon Resonance (SPR) Binding Assay; conditions: Biacore T200, immobilized biotinylated KRAS protein, 1:1 binding model
Target sequence in this assay (P01116-2 other isoform, or with tags, fused parts or gaps G12D): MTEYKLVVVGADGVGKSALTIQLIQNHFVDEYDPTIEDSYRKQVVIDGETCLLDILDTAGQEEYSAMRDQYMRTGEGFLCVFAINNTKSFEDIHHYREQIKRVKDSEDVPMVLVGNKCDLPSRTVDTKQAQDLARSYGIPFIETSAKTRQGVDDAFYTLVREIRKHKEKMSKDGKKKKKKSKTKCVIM

KRas G12D [2] = target: T1, KRas G12D; test: KRas G12D Binding Assay (TR-FRET displacement of Cy5 labelled tracer); conditions: GDP-loaded KRAS G12D (amino acids 1:169), 60 minute incubation at 22° C.
Description: After a 60 minute incubation at 22° C., the reaction was measured using a PerkinElmer EnVision multimode plate reader via TR-FRET dual wavelength detection, and the percent of control (POC) calculated using a ratiometric emission factor. […] The POC values were fit to a 4-parameter logistic curve and the IC50 value was determined as the concentration where the curve crosses 50 POC.
ND stands for “not determined.”
Target sequence in this assay (P01116 other isoform, or with tags, fused parts or gaps G12D): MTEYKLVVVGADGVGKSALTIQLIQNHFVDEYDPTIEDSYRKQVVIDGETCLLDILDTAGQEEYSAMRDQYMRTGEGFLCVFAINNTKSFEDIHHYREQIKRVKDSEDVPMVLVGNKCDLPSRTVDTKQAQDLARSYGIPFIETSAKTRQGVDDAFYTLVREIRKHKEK

Row | SMILES | Kd (KRas G12D [1]) | IC50 (KRas G12D [2])
1 | Cn1ccnc1CCOc1nc(N2C[C@H]3C[C@@H](O)[C@@H](C2)N3)c2cnc(-c3cccc4cccc(Cl)c34)c(F)c2n1 [Example 173, (1R,5R,6R)-3-(7-(8-chloronaphthalen-1-yl)-8-fluoro-2-(2-(1-methyl-1H-imidazol-2-yl)ethoxy)pyrido[4,3-d]pyrimidin-4-yl)-3,8-diazabicyclo[3.2.1]octan-6-ol] | 117 nM | 99.2 nM
2 | Cn1ccnc1CCOc1nc(N2C[C@H]3CC[C@@H](C2)N3)c2cnc(-c3cc(O)cc4ccccc34)c(F)c2n1 [Example 3, 4-(4-((1R,5S)-3,8-diazabicyclo[3.2.1]octan-3-yl)-8-fluoro-2-(2-(1-methyl-1H-imidazol-2-yl)ethoxy)pyrido[4,3-d]pyrimidin-7-yl)naphthalen-2-ol] | 8.3 nM | 9.5 nM
3 | Cn1nccc1COc1nc(N2C[C@H]3CC[C@@H](C2)N3)c2cnc(-c3cc(O)cc4ccccc34)c(F)c2n1 [Example 5, 4-(4-((1R,5S)-3,8-diazabicyclo[3.2.1]octan-3-yl)-8-fluoro-2-((1-methyl-1H-pyrazol-5-yl)methoxy)pyrido[4,3-d]pyrimidin-7-yl)naphthalen-2-ol] | 295 nM | 723 nM
4 | Nc1cccc(CCOc2nc(N3C[C@H]4CC[C@@H](C3)N4)c3cnc(-c4cc(O)cc5ccccc45)c(F)c3n2)n1 [Example 139, 4-(2-(2-(6-aminopyridin-2-yl)ethoxy)-4-((1R,5S)-3,8-diazabicyclo[3.2.1]octan-3-yl)-8-fluoropyrido[4,3-d]pyrimidin-7-yl)naphthalen-2-ol] | 25.4 nM | 113 nM
5 | CN1CCC[C@H]1COc1nc(N2CC3CCC(Cl)(C2)N3)c2cnc(-c3cc(O)cc4ccccc34)c(F)c2n1 (stereo partly drawn) [Example 160, 4-(4-(1-chloro-3,8-diazabicyclo[3.2.1]octan-3-yl)-8-fluoro-2-(((S)-1-methylpyrrolidin-2-yl)methoxy)pyrido[4,3-d]pyrimidin-7-yl)naphthalen-2-ol bis(2,2,2-trifluoroacetate)] | 0.3 nM | 120 nM
6 | CN1CCC[C@H]1COc1nc(N2C[C@H]3CC[C@@H](C2)N3)c2cnc(-c3cccc4ccccc34)c(F)c2n1 [Example 20, 4-((1R,5S)-3,8-diazabicyclo[3.2.1]octan-3-yl)-8-fluoro-2-(((S)-1-methylpyrrolidin-2-yl)methoxy)-7-(naphthalen-1-yl)pyrido[4,3-d]pyrimidine] | 967 nM | 692 nM
7 | COc1ccc(CCOc2nc(N3C[C@H]4CC[C@@H](C3)N4)c3cnc(-c4cccc5cccc(Cl)c45)c(F)c3n2)cn1 [Example 86, 4-((1R,5S)-3,8-diazabicyclo[3.2.1]octan-3-yl)-7-(8-chloronaphthalen-1-yl)-8-fluoro-2-(2-(6-methoxypyridin-3-yl)ethoxy)pyrido[4,3-d]pyrimidine] | 528000 nM | 7920 nM
8 | COCCCN1CCC(Oc2nc(N3C[C@H]4CC[C@@H](C3)N4)c3cnc(-c4cc(O)cc5ccccc45)c(F)c3n2)CC1 [Example 41, 4-(4-((1R,5S)-3,8-diazabicyclo[3.2.1]octan-3-yl)-8-fluoro-2-((1-(3-methoxypropyl)piperidin-4-yl)oxy)pyrido[4,3-d]pyrimidin-7-yl)naphthalen-2-ol] | 181 nM | 76.7 nM
9 | Fc1c(-c2cccc3cccc(Cl)c23)ncc2c(N3C[C@H]4CC[C@@H](C3)N4)nc(OCCc3cn4ccccc4n3)nc12 [Example 92, 4-((1R,5S)-3,8-diazabicyclo[3.2.1]octan-3-yl)-7-(8-chloronaphthalen-1-yl)-8-fluoro-2-(2-(imidazo[1,2-a]pyridin-2-yl)ethoxy)pyrido[4,3-d]pyrimidine] | 2300 nM | 1350 nM
10 | COCCCOc1nc(N2C[C@H]3CC[C@@H](C2)N3)c2cnc(-c3cc(O)cc4ccccc34)c(F)c2n1 [Example 68, 4-(4-((1R,5S)-3,8-diazabicyclo[3.2.1]octan-3-yl)-8-fluoro-2-(3-methoxypropoxy)pyrido[4,3-d]pyrimidin-7-yl)naphthalen-2-ol] | 293 nM | 257 nM
